Results: patent US20100298141A1, “SUBSTITUTED PYRIDINE N-OXIDE HERBICIDES” (E. I. DU PONT DE NEMOURS AND COMPANY, priority 2007, published 2010)

Assays:
[1] = tested on: barnyardgrass; assay: Test A pre-/postemergence greenhouse test; type: in vivo, Echinochloa crus-galli; conditions: for Plant response rating, Barnyardgrass: 0 to 100 scale where 0 is no effect and 100 is complete control; for Barnyardgrass plant response rating: 0 to 100 scale
In short: (§1)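 Visual injury ratings against untreated controls, taken roughly ten days after treatment in greenhouse. Plants were sprayed postemergence at one- to two-leaf stage (2–10 cm tall); at the same time, seeded loam/sand soil received a directed preemergence spray. Formulation: non-phytotoxic solvent mixture with surfactant.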

[2] = tested on: morningglory; assay: Test A pre-/postemergence greenhouse test; type: in vivo, Ipomoea spp.; conditions: for Plant response rating, Morningglory: 0 to 100 scale where 0 is no effect and 100 is complete control; for Morningglory plant response rating: 0 to 100 scale
In short: as §1

[3] = tested on: crabgrass; assay: Test A pre-/postemergence greenhouse test; type: in vivo, Digitaria sanguinalis; conditions: for Plant response rating, Crabgrass, Large: 0 to 100 scale where 0 is no effect and 100 is complete control; for Crabgrass, Large plant response rating: 0 to 100 scale
In short: as §1

[4] = tested on: giant foxtail; assay: Test A pre-/postemergence greenhouse test; type: in vivo, Setaria faberi; conditions: for Plant response rating, Foxtail, Giant: 0 to 100 scale where 0 is no effect and 100 is complete control; for Foxtail, Giant plant response rating: 0 to 100 scale
In short: as §1

[5] = tested on: duck salad; assay: Test C flooded paddy test; type: in vivo, Heteranthera limosa; conditions: Flood
In short: (§2)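 Pots were flooded to 3 cm above the soil surface at treatment, compound applied directly to the paddy water, and that depth held throughout. Plants were kept in a greenhouse for 13 to 15 days, then visually rated against untreated controls.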

[6] = tested on: redroot pigweed; assay: Test A pre-/postemergence greenhouse test; type: in vivo, Amaranthus retroflexus; conditions: for Plant response rating, Pigweed: 0 to 100 scale where 0 is no effect and 100 is complete control; for Pigweed plant response rating: 0 to 100 scale
In short: as §1

[7] = tested on: corn; assay: Test A pre-/postemergence greenhouse test; type: in vivo, Zea mays; conditions: for Plant response rating, Corn: 0 to 100 scale where 0 is no effect and 100 is complete control; for Corn plant response rating: 0 to 100 scale
In short: as §1

[8] = tested on: rice; assay: Test C flooded paddy test; type: in vivo, Oryza sativa; conditions: Flood
In short: as §2

[9] = tested on: barnyardgrass; assay: Test C flooded paddy test; type: in vivo, Echinochloa crus-galli; conditions: Flood
In short: as §2

[10] = tested on: umbrella sedge; assay: Test C flooded paddy test; type: in vivo, Cyperus difformis; conditions: Flood
In short: as §2

[11] = tested on: velvetleaf; assay: Test A pre-/postemergence greenhouse test; type: in vivo, Abutilon theophrasti; conditions: for Plant response rating, Velvetleaf: 0 to 100 scale where 0 is no effect and 100 is complete control; for Velvetleaf plant response rating: 0 to 100 scale
In short: as §1

[12] = tested on: wheat; assay: Test A pre-/postemergence greenhouse test; type: in vivo, Triticum aestivum; conditions: for Plant response rating, Wheat: 0 to 100 scale where 0 is no effect and 100 is complete control; for Wheat plant response rating: 0 to 100 scale
In short: as §1

[13] = Postemergence, 500 g ai/ha, 0 is no effect, 100 is complete control
[14] = Preemergence, 125 g ai/ha, 0 no effect, 100 complete control
[15] = Preemergence, 500 g ai/ha, 0 no effect, 100 complete control
[16] = 31 g ai/ha, scale 0 to 100 (0 no effect, 100 complete control)
[17] = 62 g ai/ha, scale 0 to 100 (0 no effect, 100 complete control)
[18] = 125 g ai/ha, scale 0 to 100, 0 no effect, 100 complete control, 13 to 15 days
[19] = 250 g ai/ha, scale 0 to 100, 0 no effect, 100 complete control, 13 to 15 days
[20] = 62 g ai/ha, scale 0 to 100, 0 no effect, 100 complete control, 13 to 15 days

CCOc1ccc(S(=O)(=O)Cc2c(C(F)(F)F)nn(C)c2OC(F)F)[n+]([O-])c1 [Compound 105]
60: Barnyardgrass plant response rating [1, 13] | Foxtail, Giant plant response rating [4, 13]
70: Crabgrass, Large plant response rating [3, 13] | Crabgrass, Large plant response rating [3, 15]
40: Morningglory plant response rating [2, 15] | Crabgrass, Large plant response rating [3, 14] | Foxtail, Giant plant response rating [4, 14]
10: Plant response rating, Barnyardgrass ([1]; Postemergence, 125 g ai/ha) | Barnyardgrass plant response rating [1, 14] | Morningglory plant response rating [2, 14] | Plant response rating, Crabgrass, Large ([3]; Postemergence, 125 g ai/ha) | Plant response rating, Foxtail, Giant ([4]; Postemergence, 125 g ai/ha)
0: Plant response rating, Morningglory ([2]; Postemergence, 125 g ai/ha) | Plant response rating, Ducksalad [5, 16] | Plant response rating, Ducksalad [5, 17] | Plant response rating, Ducksalad [5, 18] | Plant response rating, Ducksalad [5, 19] | Plant response rating, Pigweed ([6]; Postemergence, 125 g ai/ha) | Pigweed plant response rating [6, 13] | Pigweed plant response rating [6, 14] | Pigweed plant response rating [6, 15] | Plant response rating, Corn ([7]; Postemergence, 125 g ai/ha) | Corn plant response rating [7, 13] | Corn plant response rating [7, 14] | Corn plant response rating [7, 15] | Plant response rating, Rice [8, 16] | Plant response rating, Rice [8, 17] | Plant response rating, Rice [8, 18] | Plant response rating, Rice [8, 19] | Plant response rating, Barnyardgrass [9, 16] | Plant response rating, Barnyardgrass [9, 17] | Plant response rating, Barnyardgrass [9, 18] | Plant response rating, Barnyardgrass [9, 19] | Plant response rating, Sedge, Umbrella [10, 16] | Plant response rating, Sedge, Umbrella [10, 17] | Plant response rating, Sedge, Umbrella [10, 18] | Plant response rating, Sedge, Umbrella [10, 19] | Plant response rating, Velvetleaf ([11]; Postemergence, 125 g ai/ha) | Velvetleaf plant response rating [11, 13] | Velvetleaf plant response rating [11, 14] | Velvetleaf plant response rating [11, 15] | Plant response rating, Wheat ([12]; Postemergence, 125 g ai/ha) | Wheat plant response rating [12, 13] | Wheat plant response rating [12, 14] | Wheat plant response rating [12, 15]
30: Barnyardgrass plant response rating [1, 15] | Morningglory plant response rating [2, 13]
50: Foxtail, Giant plant response rating [4, 15]

[O-][n+]1ccccc1[S+]([O-])Cc1c(C(F)(F)F)nn(CC(F)(F)F)c1Cl (stereo not shown) [Compound 43]
20: Plant response rating, Velvetleaf ([11]; Postemergence, 125 g ai/ha)
60: Plant response rating, Ducksalad [5, 19] | Pigweed plant response rating [6, 13] | Plant response rating, Barnyardgrass [9, 19] | Velvetleaf plant response rating [11, 13] | Wheat plant response rating [12, 13]
70: Barnyardgrass plant response rating [1, 14] | Plant response rating, Crabgrass, Large ([3]; Postemergence, 125 g ai/ha) | Crabgrass, Large plant response rating [3, 14] | Plant response rating, Foxtail, Giant ([4]; Postemergence, 125 g ai/ha) | Plant response rating, Sedge, Umbrella [10, 19] | Plant response rating, Wheat ([12]; Preemergence, 500 g ai/ha)
0: Morningglory plant response rating [2, 14] | Plant response rating, Ducksalad [5, 20] | Pigweed plant response rating [6, 14] | Corn plant response rating [7, 14] | Plant response rating, Rice [8, 20] | Plant response rating, Barnyardgrass [9, 20]
40: Plant response rating, Wheat ([12]; Postemergence, 125 g ai/ha) | Wheat plant response rating [12, 14]
30: Plant response rating, Morningglory ([2]; Postemergence, 125 g ai/ha) | Plant response rating, Pigweed ([6]; Postemergence, 125 g ai/ha) | Plant response rating, Corn ([7]; Postemergence, 125 g ai/ha) | Plant response rating, Rice [8, 19] | Plant response rating, Sedge, Umbrella [10, 20] | Velvetleaf plant response rating [11, 14]
90: Plant response rating, Barnyardgrass ([1]; Preemergence, 500 g ai/ha) | Plant response rating, Crabgrass, Large ([3]; Preemergence, 500 g ai/ha) | Foxtail, Giant plant response rating [4, 13] | Plant response rating, Foxtail, Giant ([4]; Preemergence, 500 g ai/ha) | Plant response rating, Pigweed ([6]; Preemergence, 500 g ai/ha)
80: Barnyardgrass plant response rating [1, 13] | Morningglory plant response rating [2, 13] | Plant response rating, Morningglory ([2]; Preemergence, 500 g ai/ha) | Crabgrass, Large plant response rating [3, 13] | Foxtail, Giant plant response rating [4, 14]
50: Plant response rating, Barnyardgrass ([1]; Postemergence, 125 g ai/ha) | Corn plant response rating [7, 13] | Plant response rating, Corn ([7]; Preemergence, 500 g ai/ha) | Plant response rating, Velvetleaf ([11]; Preemergence, 500 g ai/ha)
